According to PubChem BioAssay (NCI):
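GI50 marks 50% less growth. TGI: total growth inhibition.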

Tests used:
Assay in all cases: DTP human tumour cell line panel, 384-well format
SR leukemia = test system: SR leukemia
ACHN renal = test system: ACHN renal
NCI-H460 NSCLC = test system: NCI-H460 NSCLC
MOLT-4 leukemia = test system: MOLT-4 leukemia
M14 melanoma = test system: M14 melanoma
HT29 colon = test system: HT29 colon
RXF 393 renal = test system: RXF 393 renal
NCI-H522 lung = test system: NCI-H522 lung
TK-10 renal = test system: TK-10 renal
CAKI-1 renal = test system: CAKI-1 renal
A498 renal = test system: A498 renal
RPMI-8226 leukemia = test system: RPMI-8226 leukemia
SK-MEL-28 melanoma = test system: SK-MEL-28 melanoma
SF-295 CNS = test system: SF-295 CNS
SF-539 CNS = test system: SF-539 CNS
MALME-3M melanoma = test system: MALME-3M melanoma
HOP-92 NSCLC = test system: HOP-92 NSCLC
HS 578T breast = test system: HS 578T breast
BT-549 breast = test system: BT-549 breast
NCI-H226 lung = test system: NCI-H226 lung
OVCAR-8 ovarian = test system: OVCAR-8 ovarian
UO-31 renal = test system: UO-31 renal
LOX IMVI melanoma = test system: LOX IMVI melanoma
K-562 leukemia = test system: K-562 leukemia
HCT-15 colon = test system: HCT-15 colon
KM12 colon = test system: KM12 colon
EKVX NSCLC = test system: EKVX NSCLC
SK-OV-3 ovarian = test system: SK-OV-3 ovarian
SNB-75 CNS = test system: SNB-75 CNS
T-47D breast = test system: T-47D breast
CCRF-CEM leukemia = test system: CCRF-CEM leukemia
NCI-H322M lung = test system: NCI-H322M lung
SW-620 colon = test system: SW-620 colon
IGROV1 ovarian = test system: IGROV1 ovarian
HOP-62 NSCLC = test system: HOP-62 NSCLC
MDA-MB-435 melanoma = test system: MDA-MB-435 melanoma
SK-MEL-5 melanoma = test system: SK-MEL-5 melanoma
MDA-MB-468 breast = test system: MDA-MB-468 breast
UACC-257 melanoma = test system: UACC-257 melanoma
PC-3 prostate = test system: PC-3 prostate
HCC-2998 colon = test system: HCC-2998 colon
OVCAR-4 ovarian = test system: OVCAR-4 ovarian
SN12C renal = test system: SN12C renal
DU-145 prostate = test system: DU-145 prostate
NCI/ADR-RES ovarian = test system: NCI/ADR-RES ovarian
SF-268 CNS = test system: SF-268 CNS
COLO 205 colon = test system: COLO 205 colon
MCF7 breast = test system: MCF7 breast
OVCAR-5 ovarian = test system: OVCAR-5 ovarian
OVCAR-3 ovarian = test system: OVCAR-3 ovarian
UACC-62 melanoma = test system: UACC-62 melanoma
MDA-MB-231 breast = test system: MDA-MB-231 breast
SNB-19 CNS = test system: SNB-19 CNS
HL-60(TB) leukemia = test system: HL-60(TB) leukemia
NCI-H23 lung = test system: NCI-H23 lung
A549 NSCLC = test system: A549 NSCLC
786-0 renal = test system: 786-0 renal

SMILES: CCN(CC)CCCC(C)Nc1c2ccc(Cl)cc2nc2ccc(OC)cc12 (centres undefined)
- GI50 (SR leukemia): 401 nM
- TGI (SR leukemia): 1320 nM
- GI50 (ACHN renal): 1040 nM
- TGI (ACHN renal): 2440 nM
- GI50 (NCI-H460 NSCLC): 1100 nM
- TGI (NCI-H460 NSCLC): 2310 nM
- GI50 (MOLT-4 leukemia): 212 nM
- TGI (MOLT-4 leukemia): 357 nM
- GI50 (M14 melanoma): 1790 nM
- TGI (M14 melanoma): 3180 nM
- GI50 (HT29 colon): 1330 nM
- TGI (HT29 colon): 2630 nM
- GI50 (RXF 393 renal): 668 nM
- TGI (RXF 393 renal): 1980 nM
- GI50 (NCI-H522 lung): 1470 nM
- TGI (NCI-H522 lung): 2800 nM
- GI50 (TK-10 renal): 1950 nM
- TGI (TK-10 renal): 3690 nM
- GI50 (CAKI-1 renal): 1370 nM
- TGI (CAKI-1 renal): 2740 nM
- GI50 (A498 renal): 880 nM
- TGI (A498 renal): 2110 nM
- GI50 (RPMI-8226 leukemia): 1490 nM
- TGI (RPMI-8226 leukemia): 2810 nM
- GI50 (SK-MEL-28 melanoma): 1870 nM
- TGI (SK-MEL-28 melanoma): 3270 nM
- GI50 (SF-295 CNS): 1740 nM
- TGI (SF-295 CNS): 3140 nM
- GI50 (SF-539 CNS): 1120 nM
- TGI (SF-539 CNS): 2330 nM
- GI50 (MALME-3M melanoma): 1600 nM
- TGI (MALME-3M melanoma): 2950 nM
- GI50 (HOP-92 NSCLC): 520 nM
- TGI (HOP-92 NSCLC): 1820 nM
- GI50 (HS 578T breast): 1710 nM
- TGI (HS 578T breast): 3080 nM
- GI50 (BT-549 breast): 1500 nM
- TGI (BT-549 breast): 2840 nM
- GI50 (NCI-H226 lung): 1330 nM
- TGI (NCI-H226 lung): 2800 nM
- GI50 (OVCAR-8 ovarian): 1070 nM
- TGI (OVCAR-8 ovarian): 2260 nM
- GI50 (UO-31 renal): 1850 nM
- TGI (UO-31 renal): 3730 nM
- GI50 (LOX IMVI melanoma): 1390 nM
- TGI (LOX IMVI melanoma): 2700 nM
- GI50 (K-562 leukemia): 1080 nM
- TGI (K-562 leukemia): 2290 nM
- GI50 (HCT-15 colon): 1060 nM
- TGI (HCT-15 colon): 2300 nM
- GI50 (KM12 colon): 1370 nM
- TGI (KM12 colon): 3130 nM
- GI50 (EKVX NSCLC): 1330 nM
- TGI (EKVX NSCLC): 2820 nM
- GI50 (SK-OV-3 ovarian): 1200 nM
- TGI (SK-OV-3 ovarian): 2700 nM
- GI50 (SNB-75 CNS): 1330 nM
- TGI (SNB-75 CNS): 2610 nM
- GI50 (T-47D breast): 1640 nM
- TGI (T-47D breast): 3070 nM
- GI50 (CCRF-CEM leukemia): 609 nM
- TGI (CCRF-CEM leukemia): 1660 nM
- GI50 (NCI-H322M lung): 1290 nM
- TGI (NCI-H322M lung): 2630 nM
- GI50 (SW-620 colon): 1390 nM
- TGI (SW-620 colon): 2940 nM
- GI50 (IGROV1 ovarian): 1890 nM
- TGI (IGROV1 ovarian): 3720 nM
- GI50 (HOP-62 NSCLC): 1100 nM
- TGI (HOP-62 NSCLC): 2440 nM
- GI50 (MDA-MB-435 melanoma): 1750 nM
- TGI (MDA-MB-435 melanoma): 3140 nM
- GI50 (SK-MEL-5 melanoma): 1960 nM
- TGI (SK-MEL-5 melanoma): 3380 nM
- GI50 (MDA-MB-468 breast): 322 nM
- TGI (MDA-MB-468 breast): 1230 nM
- GI50 (UACC-257 melanoma): 1890 nM
- TGI (UACC-257 melanoma): 3300 nM
- GI50 (PC-3 prostate): 1780 nM
- TGI (PC-3 prostate): 3380 nM
- GI50 (HCC-2998 colon): 985 nM
- TGI (HCC-2998 colon): 2150 nM
- GI50 (OVCAR-4 ovarian): 1550 nM
- TGI (OVCAR-4 ovarian): 2920 nM
- GI50 (SN12C renal): 1410 nM
- TGI (SN12C renal): 2860 nM
- GI50 (DU-145 prostate): 1720 nM
- TGI (DU-145 prostate): 3530 nM
- GI50 (NCI/ADR-RES ovarian): 1550 nM
- TGI (NCI/ADR-RES ovarian): 2940 nM
- GI50 (SF-268 CNS): 1640 nM
- TGI (SF-268 CNS): 3060 nM
- GI50 (COLO 205 colon): 1310 nM
- TGI (COLO 205 colon): 2600 nM
- GI50 (MCF7 breast): 1410 nM
- TGI (MCF7 breast): 3200 nM
- GI50 (OVCAR-5 ovarian): 1920 nM
- TGI (OVCAR-5 ovarian): 4160 nM
- GI50 (OVCAR-3 ovarian): 1760 nM
- TGI (OVCAR-3 ovarian): 3360 nM
- GI50 (UACC-62 melanoma): 1690 nM
- TGI (UACC-62 melanoma): 3060 nM
- GI50 (MDA-MB-231 breast): 1180 nM
- TGI (MDA-MB-231 breast): 2560 nM
- GI50 (SNB-19 CNS): 1940 nM
- TGI (SNB-19 CNS): 4030 nM
- GI50 (HL-60(TB) leukemia): 1640 nM
- TGI (HL-60(TB) leukemia): 3000 nM
- GI50 (NCI-H23 lung): 1600 nM
- TGI (NCI-H23 lung): 2960 nM
- GI50 (A549 NSCLC): 1510 nM
- TGI (A549 NSCLC): 2910 nM
- GI50 ([…]-0 renal): 1180 nM
- TGI (786-0 renal): 2440 nM
